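Assay format: 96-well plates, 48-hour exposure. TGI marks complete inhibition of growth.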
Key:
Test in all cases: NCI-60 cell line screen, 48 h
[1] = test system: A549 NSCLC
[2] = test system: CCRF-CEM leukemia
[3] = test system: RXF 393 renal
[4] = test system: LXFL 529 NSCLC
[5] = test system: 786-0 renal
[6] = test system: IGROV1 ovarian
[7] = test system: OVCAR-4 ovarian
[8] = test system: XF 498 CNS
[9] = test system: KM12 colon
[10] = test system: UACC-257 melanoma
[11] = test system: SK-MEL-28 melanoma
[12] = test system: HT29 colon
[13] = test system: MOLT-4 leukemia
[14] = test system: UO-31 renal
[15] = test system: SF-268 CNS
[16] = test system: HCC-2998 colon
[17] = test system: SW-620 colon
[18] = test system: SNB-75 CNS
[19] = test system: SK-OV-3 ovarian
[20] = test system: SF-295 CNS
[21] = test system: MALME-3M melanoma
[22] = test system: EKVX NSCLC
[23] = test system: NCI-H226 lung
[24] = test system: TK-10 renal
[25] = test system: UACC-62 melanoma
[26] = test system: SN12C renal
[27] = test system: NCI-H23 lung
[28] = test system: OVCAR-3 ovarian
[29] = test system: OVCAR-8 ovarian
[30] = test system: SNB-78 CNS
[31] = test system: SNB-19 CNS
[32] = test system: SF-539 CNS
[33] = test system: HL-60(TB) leukemia
[34] = test system: ACHN renal
[35] = test system: DLD-1 colon
[36] = test system: U251 CNS
[37] = test system: KM20L2 colon
[38] = test system: HOP-18 NSCLC
[39] = test system: K-562 leukemia
[40] = test system: HCT-116 colon
[41] = test system: LOX IMVI melanoma
[42] = test system: OVCAR-5 ovarian
[43] = test system: M14 melanoma
[44] = test system: RPMI-8226 leukemia
[45] = test system: NCI-H522 lung
[46] = test system: SK-MEL-2 melanoma
[47] = test system: NCI-H460 lung
[48] = test system: CAKI-1 renal
[49] = test system: HOP-62 NSCLC
[50] = test system: HOP-92 NSCLC
[51] = test system: HCT-15 colon
[52] = test system: COLO 205 colon
[53] = test system: DMS 273 small cell lung
[54] = test system: M19-MEL melanoma
[55] = test system: SK-MEL-5 melanoma
[56] = test system: A498 renal
[57] = test system: DMS 114 small cell lung
[58] = test system: SR leukemia

Measured: TGI

COC(=O)/C(C#N)=C1\CCC(Nc2cccc(C(F)(F)F)c2)N1C (stereo not given)
not listed: [50] | [51] | [52] | [53] | [54] | [55] | [56] | [57] | [58]
> 100 µM: all other assays above

C[C@H](NS(=O)(=O)c1ccc(NC(=O)c2ccccc2)cc1)C(=O)O
not listed: [23] | [30] | [40] | [49] | [57] | [58]
> 100 µM: all other assays above

Cc1ccc(NC(=O)CSc2nnc(Cc3ccccc3)o2)c(C)c1
not listed: [6] | [16] | [28] | [32] | [35] | [42] | [48] | [50] | [56]
> 100 µM: all other assays above

From PubChem BioAssay (NCI)
